Assay results taken from ChEMBL document CHEMBL1649584, “Overexpression of the naturally occurring blaOXA-51 gene in Acinetobacter baumannii mediated by novel insertion sequence ISAba9” (2009).
In brackets after ≈: the same amount, converted by molar mass.

What was measured:
Type in all cases: functional
Acinetobacter baumannii [1] = assay: Antimicrobial activity against Acinetobacter baumannii isolate Ab58 overexpressing beta-lactamase OXA-51 gene mediated by novel insertion sequence ISAba9
Acinetobacter baumannii [2] = assay: Antimicrobial activity against Acinetobacter baumannii isolate Ab23 overexpressing beta-lactamase OXA-51 gene mediated by novel insertion sequence ISAba9
Acinetobacter baumannii [3] = assay: Antimicrobial activity against Acinetobacter baumannii isolate Ab185 overexpressing beta-lactamase OXA-51 gene mediated by novel insertion sequence ISAba9
Acinetobacter baumannii [4] = assay: Antimicrobial activity against Acinetobacter baumannii isolate Ab2 overexpressing beta-lactamase OXA-51 gene mediated by novel insertion sequence ISAba9
Acinetobacter baumannii [5] = assay: Antimicrobial activity against Acinetobacter baumannii isolate Ab91 overexpressing beta-lactamase OXA-51 gene mediated by novel insertion sequence ISAba9
Acinetobacter baumannii [6] = assay: Antimicrobial activity against Acinetobacter baumannii isolate Ab153 overexpressing beta-lactamase OXA-51 gene mediated by novel insertion sequence ISAba9
Acinetobacter baumannii [7] = assay: Antimicrobial activity against Acinetobacter baumannii isolate Ab133 overexpressing beta-lactamase OXA-51 gene mediated by novel insertion sequence ISAba9
Acinetobacter baumannii [8] = assay: Antimicrobial activity against Acinetobacter baumannii isolate Ab108 overexpressing beta-lactamase OXA-51 gene mediated by novel insertion sequence ISAba9
Acinetobacter baumannii [9] = assay: Antimicrobial activity against Acinetobacter baumannii isolate Ab114 overexpressing beta-lactamase OXA-51 gene mediated by novel insertion sequence ISAba9
Acinetobacter baumannii [10] = assay: Antimicrobial activity against Acinetobacter baumannii isolate Ab12 overexpressing beta-lactamase OXA-51 gene mediated by novel insertion sequence ISAba9
Acinetobacter baumannii [11] = assay: Antimicrobial activity against Acinetobacter baumannii isolate Ab181 overexpressing beta-lactamase OXA-51 gene mediated by novel insertion sequence ISAba9
Acinetobacter baumannii [12] = assay: Antimicrobial activity against Acinetobacter baumannii isolate Ab30 overexpressing beta-lactamase OXA-51 gene mediated by novel insertion sequence ISAba9
Acinetobacter baumannii [13] = assay: Antimicrobial activity against Acinetobacter baumannii isolate Ab177 overexpressing beta-lactamase OXA-51 gene mediated by novel insertion sequence ISAba9
Acinetobacter baumannii [14] = assay: Antimicrobial activity against Acinetobacter baumannii isolate Ab33 overexpressing beta-lactamase OXA-51 gene mediated by novel insertion sequence ISAba9
Acinetobacter baumannii [15] = assay: Antimicrobial activity against Acinetobacter baumannii isolate Ab150 overexpressing beta-lactamase OXA-51 gene mediated by novel insertion sequence ISAba9
Acinetobacter baumannii [16] = assay: Antimicrobial activity against Acinetobacter baumannii isolate Ab11 overexpressing beta-lactamase OXA-51 gene mediated by novel insertion sequence ISAba9
Acinetobacter baumannii [17] = assay: Antimicrobial activity against Acinetobacter baumannii isolate Ab5 overexpressing beta-lactamase OXA-51 gene mediated by novel insertion sequence ISAba9
Acinetobacter baumannii [18] = assay: Antimicrobial activity against Acinetobacter baumannii isolate Ab3 overexpressing beta-lactamase OXA-51 gene mediated by novel insertion sequence ISAba9
Acinetobacter baumannii [19] = assay: Antimicrobial activity against Acinetobacter baumannii isolate Ab168 overexpressing beta-lactamase OXA-51 gene mediated by novel insertion sequence ISAba9
Acinetobacter baumannii [20] = assay: Antimicrobial activity against Acinetobacter baumannii isolate Ab63 overexpressing beta-lactamase OXA-51 gene mediated by novel insertion sequence ISAba9

Row | Structure (SMILES) | MIC (Acinetobacter baumannii [1]) [µg/mL] | MIC (Acinetobacter baumannii [2]) [µg/mL] | MIC (Acinetobacter baumannii [3]) [µg/mL] | MIC (Acinetobacter baumannii [4]) [µg/mL] | MIC (Acinetobacter baumannii [5]) [µg/mL] | MIC (Acinetobacter baumannii [6]) [µg/mL] | MIC (Acinetobacter baumannii [7]) [µg/mL] | MIC (Acinetobacter baumannii [8]) [µg/mL] | MIC (Acinetobacter baumannii [9]) [µg/mL] | MIC (Acinetobacter baumannii [10]) [µg/mL] | MIC (Acinetobacter baumannii [11]) [µg/mL] | MIC (Acinetobacter baumannii [12]) [µg/mL] | MIC (Acinetobacter baumannii [13]) [µg/mL] | MIC (Acinetobacter baumannii [14]) [µg/mL] | MIC (Acinetobacter baumannii [15]) [µg/mL] | MIC (Acinetobacter baumannii [16]) [µg/mL] | MIC (Acinetobacter baumannii [17]) [µg/mL] | MIC (Acinetobacter baumannii [18]) [µg/mL] | MIC (Acinetobacter baumannii [19]) [µg/mL] | MIC (Acinetobacter baumannii [20]) [µg/mL]
1 | C[C@@H](O)[C@H]1C(=O)N2C(C(=O)O)=C(S[C@@H]3CN[C@H](C(=O)N(C)C)C3)[C@H](C)[C@H]12 [MEROPENEM] | 16 (≈ 41.7 µM) | 64 (≈ 167 µM) | 24 (≈ 62.6 µM) | 4 (≈ 10.4 µM) | 16 (≈ 41.7 µM) | 16 (≈ 41.7 µM) | 8 (≈ 20.9 µM) | 16 (≈ 41.7 µM) | 16 (≈ 41.7 µM) | 64 (≈ 167 µM) | 32 (≈ 83.4 µM) | 64 (≈ 167 µM) | 8 (≈ 20.9 µM) | 64 (≈ 167 µM) | 16 (≈ 41.7 µM) | 64 (≈ 167 µM) | 64 (≈ 167 µM) | 8 (≈ 20.9 µM) | 12 (≈ 31.3 µM) | 16 (≈ 41.7 µM)
2 | C[C@@H](O)[C@H]1C(=O)N2C(C(=O)O)=C(SCCNC=N)C[C@H]12 [IMIPENEM ANHYDROUS] | 16 (≈ 53.4 µM) | 64 (≈ 214 µM) | 24 (≈ 80.2 µM) | 4 (≈ 13.4 µM) | 16 (≈ 53.4 µM) | 16 (≈ 53.4 µM) | 8 (≈ 26.7 µM) | 16 (≈ 53.4 µM) | 16 (≈ 53.4 µM) | 64 (≈ 214 µM) | 32 (≈ 107 µM) | 64 (≈ 214 µM) | 8 (≈ 26.7 µM) | 64 (≈ 214 µM) | 16 (≈ 53.4 µM) | 64 (≈ 214 µM) | 64 (≈ 214 µM) | 8 (≈ 26.7 µM) | 12 (≈ 40.1 µM) | 16 (≈ 53.4 µM)
